From US20150344427A1 (EPIZYME, INC., priority 2012, published 2015)

How the values were obtained:
WSU-DLCL2 cells = test: Cell Proliferation Analysis, WSU-DLCL2; type: cell-based; details: Homo sapiens, WSUDLCL2, 144 h, 6 days, Cell Titer Glo
From the text: WSU-DLCL2 suspension cells were purchased from DSMZ (German Collection of Microorganisms and Cell Cultures, Braunschweig, Germany). RPMI/Glutamax Medium, Penicillin-Streptomycin, Heat Inactivated Fetal Bovine Serum were purchased from Life Technologies, Grand Island, N.Y., USA. V-bottom polypropylene 384-well plates were purchased from Greiner Bio-One, Monroe, N.C., USA. Cell culture 384-well white opaque plates were purchased from Perkin Elmer, Waltham, Mass., USA. Cell-Titer Glo® was purchased from Promega Corporation, Madison, Wis., USA. SpectraMax M5 plate reader was purchased from Molecular Devices LLC, Sunnyvale, Calif., USA.
WSU-DLCL2 suspension cells were maintained in growth medium (RPMI 1640 supplemented with 10% v/v heat inactivated fetal bovine serum and cultured at 37° C. under 5% CO2. Under assay conditions, cells were incubated in Assay Medium (RPMI 1640 supplemented with 20% v/v heat inactivated fetal bovine serum and 100 units/mL penicillin-streptomycin) at 37° C. under 5% CO2.
For the assessment of the effect of compounds on the proliferation of the WSU-DLCL2 cell line, exponentially growing cells were plated in 384-well white opaque plates at a density of 1250 cell/ml in a final volume of 50 μl of assay medium. A compound source plate was prepared by performing triplicate nine-point 3-fold serial dilutions in DMSO, beginning at 10 mM (final top concentration of compound in the assay was 20 μM and the DMSO was 0.2%). A 100 nL aliquot from the compound stock plate was added to its respective well in the cell plate. […] After addition of compounds, assay plates were incubated for 6 days at 37° C., 5% CO2, relative humidity >90% for 6 days. Cell viability was measured by quantization of ATP present in the cell cultures, adding 35 μl of Cell Titer Glo® reagent to the cell plates. Luminescence was read in the SpectraMax M5. The concentration inhibiting cell viability by 50% was determined using a 4-parametric fit of the normalized dose response curves.

[1] = biological target: T1, EZH2 Y641F mutant (PRC2 enzyme) (Homo sapiens, UniProt Q15910, Y641F); test: PRC2 enzyme assay on peptide substrate, EZH2 Y641F mutant; type: biochemical; details: Y641F mutant PRC2 enzyme 4 nM, H3K27me2 peptide, 3H-SAM Flashplate
T1 construct: made in house; host or cells: Spodoptera frugiperda (sf9) cells, baculovirus
T1 sequence (Q15910 whole entry Y641F): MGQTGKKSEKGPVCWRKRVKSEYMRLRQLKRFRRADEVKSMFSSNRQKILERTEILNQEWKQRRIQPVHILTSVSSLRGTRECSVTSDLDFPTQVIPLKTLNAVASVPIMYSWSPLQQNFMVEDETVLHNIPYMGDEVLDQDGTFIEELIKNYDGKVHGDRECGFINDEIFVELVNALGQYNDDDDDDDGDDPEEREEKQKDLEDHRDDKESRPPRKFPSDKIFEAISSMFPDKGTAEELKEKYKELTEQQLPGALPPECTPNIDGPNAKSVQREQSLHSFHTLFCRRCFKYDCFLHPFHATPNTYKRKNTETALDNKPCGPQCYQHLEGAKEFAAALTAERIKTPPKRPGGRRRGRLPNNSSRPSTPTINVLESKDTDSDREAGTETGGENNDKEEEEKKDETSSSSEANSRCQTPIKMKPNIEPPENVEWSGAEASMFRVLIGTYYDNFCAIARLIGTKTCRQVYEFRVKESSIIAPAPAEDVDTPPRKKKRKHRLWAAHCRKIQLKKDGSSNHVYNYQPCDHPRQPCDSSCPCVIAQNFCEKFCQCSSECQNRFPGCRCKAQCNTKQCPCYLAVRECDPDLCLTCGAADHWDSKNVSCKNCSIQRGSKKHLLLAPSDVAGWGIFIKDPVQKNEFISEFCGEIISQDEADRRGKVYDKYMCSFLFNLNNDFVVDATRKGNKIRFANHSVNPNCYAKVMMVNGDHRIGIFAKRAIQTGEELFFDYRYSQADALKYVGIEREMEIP
T1 sequence (O75530 whole entry partner): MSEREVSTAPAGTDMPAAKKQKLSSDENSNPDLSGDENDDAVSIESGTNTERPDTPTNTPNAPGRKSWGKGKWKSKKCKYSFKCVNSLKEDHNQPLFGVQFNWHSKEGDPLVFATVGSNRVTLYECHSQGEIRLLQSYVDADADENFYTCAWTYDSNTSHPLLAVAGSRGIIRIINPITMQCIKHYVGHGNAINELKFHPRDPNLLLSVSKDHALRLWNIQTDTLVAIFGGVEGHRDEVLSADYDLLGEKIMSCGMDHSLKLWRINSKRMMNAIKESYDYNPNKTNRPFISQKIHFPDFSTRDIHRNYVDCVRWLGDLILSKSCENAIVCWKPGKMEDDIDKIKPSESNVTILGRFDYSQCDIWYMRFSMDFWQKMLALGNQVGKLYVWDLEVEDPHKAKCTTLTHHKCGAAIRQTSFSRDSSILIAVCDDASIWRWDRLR
T1 sequence (Q15022 whole entry partner): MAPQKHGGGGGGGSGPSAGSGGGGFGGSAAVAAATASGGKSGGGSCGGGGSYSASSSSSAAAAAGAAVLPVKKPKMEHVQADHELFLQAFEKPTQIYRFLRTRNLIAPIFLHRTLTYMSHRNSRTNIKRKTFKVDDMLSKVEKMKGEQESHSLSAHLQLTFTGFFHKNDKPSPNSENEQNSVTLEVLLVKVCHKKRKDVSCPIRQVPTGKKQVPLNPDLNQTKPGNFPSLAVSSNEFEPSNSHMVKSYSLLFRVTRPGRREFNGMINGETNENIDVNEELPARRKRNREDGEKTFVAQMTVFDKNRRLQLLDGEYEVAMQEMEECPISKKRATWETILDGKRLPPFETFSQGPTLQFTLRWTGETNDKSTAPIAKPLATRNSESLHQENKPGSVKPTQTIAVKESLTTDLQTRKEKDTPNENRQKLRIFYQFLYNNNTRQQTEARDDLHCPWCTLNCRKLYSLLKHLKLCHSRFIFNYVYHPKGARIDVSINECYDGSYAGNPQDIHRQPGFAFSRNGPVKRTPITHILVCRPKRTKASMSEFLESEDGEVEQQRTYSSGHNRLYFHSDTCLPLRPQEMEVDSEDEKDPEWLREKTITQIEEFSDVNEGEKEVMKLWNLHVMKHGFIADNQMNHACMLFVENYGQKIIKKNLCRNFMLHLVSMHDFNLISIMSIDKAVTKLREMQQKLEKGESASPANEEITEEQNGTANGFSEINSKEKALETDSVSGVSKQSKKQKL
T1 sequence (Q09028 whole entry partner): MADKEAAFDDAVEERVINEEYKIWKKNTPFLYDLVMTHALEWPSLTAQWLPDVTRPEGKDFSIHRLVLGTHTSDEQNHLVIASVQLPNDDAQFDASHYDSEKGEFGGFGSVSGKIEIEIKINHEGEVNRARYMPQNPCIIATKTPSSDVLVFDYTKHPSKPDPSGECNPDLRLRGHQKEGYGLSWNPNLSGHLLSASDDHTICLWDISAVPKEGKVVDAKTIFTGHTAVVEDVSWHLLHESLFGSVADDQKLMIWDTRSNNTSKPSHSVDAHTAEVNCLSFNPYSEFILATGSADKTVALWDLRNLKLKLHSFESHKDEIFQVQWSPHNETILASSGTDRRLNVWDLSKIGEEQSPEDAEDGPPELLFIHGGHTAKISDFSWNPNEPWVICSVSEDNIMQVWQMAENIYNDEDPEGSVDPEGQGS
From the text: General Materials. S-adenosylmethionine (SAM), S-adenosylhomocyteine (SAH), bicine, KCl, Tween20, dimethylsulfoxide (DMSO) and bovine skin gelatin (BSG) were purchased from Sigma-Aldrich at the highest level of purity possible. Dithiothreitol (DTT) was purchased from EMD. ^3H-SAM was purchased from American Radiolabeled Chemicals with a specific activity of 80 Ci/mmol. 384-well streptavidin Flashplates were purchased from PerkinElmer.
Peptides representative of human histone H3 residues 21-44 containing either an unmodified lysine 27 (H3K27me0) or dimethylated lysine 27 (H3K27me2) were synthesized with a C-terminal G(K-biotin) linker-affinity tag motif and a C-terminal amide cap by 21st Century Biochemicals. […] The sequences are listed below.
Human PRC2 enzymes were purified as 4-component enzyme complexes co-expressed in Spodoptera frugiperda (sf9) cells using a baculovirus expression system. […] The EED subunit contained an N-terminal FLAG tag that was used to purify the entire 4-component complex from sf9 cell lysates.
The assays were all performed in a buffer consisting of 20 mM bicine (pH=7.6), 0.5 mM DTT, 0.005% BSG and 0.002% Tween20, prepared on the day of use. Compounds in 100% DMSO (1 μL) were spotted into polypropylene 384-well V-bottom plates (Greiner) using a Platemate 2×3 outfitted with a 384-channel pipet head (Thermo). DMSO (1 μL) was added to columns 11, 12, 23, 24, rows A-H for the maximum signal control, and SAH, a known product and inhibitor of PRC2 (1 μL) was added to columns 11,12, 23, 24, rows I-P for the minimum signal control. A cocktail (40 μL) containing the wild-type PRC2 enzyme and H3K27me0 peptide or any of the Y641 mutant enzymes and H3K27me2 peptide was added by Multidrop Combi (Thermo). The compounds were allowed to incubate with PRC2 for 30 min at 25° C., then a cocktail (10 μL) containing a mixture of non-radioactive and ^3H-SAM was added to initiate the reaction (final volume=51 μL). In all cases, the final concentrations were as follows: wild-type or mutant PRC2 enzyme was 4 nM, SAH in the minimum signal control wells was 1 mM and the DMSO concentration was 1%. The assays were stopped by the addition of non-radioactive SAM (10 μL) to a final concentration of 600 μM, which dilutes the ^3H-SAM to a level where its incorporation into the peptide substrate is no longer detectable. 50 μL of the reaction in the 384-well polypropylene plate was then transferred to a 384-well Flashplate and the biotinylated peptides were allowed to bind to the streptavidin surface for at least 1 h before being washed three times with 0.1% Tween20 in a Biotek ELx405 plate washer. The plates were then read in a PerkinElmer TopCount platereader to measure the quantity of ^3H-labeled peptide bound to the Flashplate surface, measured as disintegrations per minute (dpm) or alternatively, referred to as counts per minute (cpm).
Where dpm=disintegrations per minute, cmpd=signal in assay well, and min and max are the respective minimum and maximum signal controls.
Where top and bottom are the normally allowed to float, but may be fixed at 100 or 0 respectively in a 3-parameter fit. The Hill Coefficient normally allowed to float but may also be fixed at 1 in a 3-parameter fit. Y is the % inhibition and X is the compound concentration.

Structure (SMILES)	IC50 [1]	IC50 (WSU-DLCL2 cells)
CCn1c(C)cc(=O)c(CNC(=O)c2cc(Cl)cc(N(CC)[C@H]3CC[C@H](N(C)C)CC3)c2C)c1C [Compound 87]	37400 nM	3000 nM
CCN(c1cc(-c2cnc(C)cn2)cc(C(=O)NCc2c(Cl)[nH]c(C)cc2=O)c1C)[C@H]1CC[C@H](N(C)C)CC1 [Compound 91]	49 nM	5400 nM
CCN(c1cc(-c2ccc(OCCOC)cc2)cc(C(=O)NCc2c(Cl)[nH]c(C)cc2=O)c1C)[C@H]1CC[C@H](N(C)C)CC1 [Compound 92]	23 nM	4400 nM
CCN(c1cc(Cl)cc(C(=O)NCc2c(C)[nH]c(C)cc2=O)c1C)[C@H]1CC[C@H](N(C)C)CC1 [Compound 1, 5-chloro-N-((2,6-dimethyl-4-oxo-1,4-dihydropyridin-3-yl)methyl)-3-(((trans)-4-(dimethylamino)cyclohexyl)(ethyl)amino)-2-methylbenzamide]	40 nM	17100 nM
CCN(c1cc(Cl)cc(C(=O)NCc2c(C)n(C)c(C)cc2=O)c1C)[C@H]1CC[C@H](N(C)C)CC1 [Compound 86]	> 50000 nM	> 20000 nM
CCN(c1cc(-c2cnn(C)c2)cc(C(=O)NCc2c(Cl)[nH]c(C)cc2=O)c1C)[C@H]1CC[C@H](N(C)C)CC1 [Compound 89]	229 nM	11500 nM

Second part, led by results:

IC50 [1]	Structure (SMILES)	IC50 (WSU-DLCL2 cells)
5 nM	CCN(c1cc(-c2ccc(OCCOC)cc2)cc(C(=O)NCc2c(C)[nH]c(C)cc2=O)c1C)[C@H]1CC[C@H](N(C)C)CC1 [Compound 93]	1200 nM
46 nM	CCN(c1cc(-c2ccc(COC)nc2)cc(C(=O)NCc2c(Cl)[nH]c(C)cc2=O)c1C)[C@H]1CC[C@H](N(C)C)CC1 [Compound 88]	5100 nM
40 nM	CCN(c1cc(-c2ccc(C)nc2)cc(C(=O)NCc2c(Cl)[nH]c(C)cc2=O)c1C)[C@H]1CC[C@H](N(C)C)CC1 [Compound 90]	5300 nM
18 nM	CCN(c1cc(-c2ccc(OCCOC)cc2)cc(C(=O)NCc2c(C)[nH]c(C)cc2=O)c1C)[C@H]1CC[C@H](N(C)CCOC)CC1 [Compound 100]	4200 nM
7 nM	CCCN(c1cc(-c2ccc(OCCOC)cc2)cc(C(=O)NCc2c(C)[nH]c(C)cc2=O)c1C)[C@H]1CC[C@H](N(C)C)CC1 [Compound 94]	2900 nM
